Where two headings read alike, the source gives them in different places. Where a SMILES comes first, the peptide text is derived from it. Bridges are numbered along the chain shown (N, C = ends).

Consider 6 molecules from paper PMC9163038 (Scientific Reports, 2022).

The target in one data set is T1, mouse CCK2R (Mus musculus, UniProt P56481).
T1 sequence (P56481 1-453): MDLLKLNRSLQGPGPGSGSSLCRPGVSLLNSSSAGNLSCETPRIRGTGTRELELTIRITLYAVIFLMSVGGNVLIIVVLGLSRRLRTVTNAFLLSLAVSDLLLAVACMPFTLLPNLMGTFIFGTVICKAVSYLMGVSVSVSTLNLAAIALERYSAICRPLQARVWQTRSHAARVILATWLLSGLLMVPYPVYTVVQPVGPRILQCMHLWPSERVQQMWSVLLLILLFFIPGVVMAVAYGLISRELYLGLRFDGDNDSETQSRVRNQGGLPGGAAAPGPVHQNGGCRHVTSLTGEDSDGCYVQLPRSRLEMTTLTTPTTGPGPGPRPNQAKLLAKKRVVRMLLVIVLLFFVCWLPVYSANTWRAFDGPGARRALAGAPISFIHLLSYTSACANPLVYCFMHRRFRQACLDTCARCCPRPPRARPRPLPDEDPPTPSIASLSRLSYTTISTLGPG
Description: Inositol-1-phosphate (IP1) accumulation assay (HTRF) in HEK293 cells transiently expressing CCK2R. As to conditions: for Antagonism of CCK-8-induced IP1 formation: antagonist 500 nM, preincubated 30 min at 37 °C, CCK-8 10 nM, Fig. S1b, n = 3-5; for IP1 formation (fold difference over baseline): positive control, n = 3-4; for Emax: HEK293, read-out: Maximum efficacy (Emax) at the CCK2R.

The target of data set [1] is T2, mouse cholecystokinin-2 receptor, EGFP-tagged (mouse) (UniProt P56481).
T2 sequence: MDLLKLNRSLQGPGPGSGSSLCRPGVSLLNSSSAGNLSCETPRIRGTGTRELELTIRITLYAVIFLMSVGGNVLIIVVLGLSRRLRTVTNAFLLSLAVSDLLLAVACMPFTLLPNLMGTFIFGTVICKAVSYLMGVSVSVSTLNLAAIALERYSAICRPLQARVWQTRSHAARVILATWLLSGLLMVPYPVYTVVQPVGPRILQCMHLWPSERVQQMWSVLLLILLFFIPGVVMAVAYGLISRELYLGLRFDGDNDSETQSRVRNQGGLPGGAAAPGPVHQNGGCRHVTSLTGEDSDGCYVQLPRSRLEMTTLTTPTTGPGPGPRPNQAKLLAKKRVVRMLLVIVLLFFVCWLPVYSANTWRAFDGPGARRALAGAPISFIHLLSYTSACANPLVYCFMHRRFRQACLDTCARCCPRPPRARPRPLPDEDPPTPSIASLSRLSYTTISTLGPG

A further data set relates to HEK293 cells. Description: Cell viability assay (Cell Counting Kit-8). As to conditions: 2 h incubation. On the procedure: Effect on cell viability of plant extract was measured against the HEK293 cell line using the Cell Counting Kit-8 (VitaScientific, USA). Briefly, 100 µL of medium containing 1 × 10^4 cells was seeded in each well of a 96-well plate and incubated at 37 °C for 24 h. […] Finally, 10 µL of the kit reagent (final concentration of 10%, v/v) was added into each well and incubated at 37 °C for 3 h. Absorbance was measured at 450 nm using the FlexStation 3 multi-mode microplate reader (Molecular Devices, USA). Triton X-100 and medium were used as positive and negative controls, respectively. The cell viability (CV) percentage was calculated using the following equation: CV (%) = (AS/AC) × 100, whereas AS and AC are related to the absorbance of sample and negative control at 450 nm.

Data set [2] deals with T2, mouse cholecystokinin-2 receptor, EGFP-tagged (mouse). The source holds these as a separate data set.

Sequence of cholecystokinin-8 (P06307 whole entry, looked up): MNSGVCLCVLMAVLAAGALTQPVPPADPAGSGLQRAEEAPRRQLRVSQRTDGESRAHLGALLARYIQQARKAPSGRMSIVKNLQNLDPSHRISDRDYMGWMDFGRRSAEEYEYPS
Description for mouse CCK2R: Human embryonic kidney (HEK293) cells (Ref.[31]) were maintained in a fresh Dulbecco’s modified Eagle’s medium supplemented with 10% fetal bovine serum, 100 U/mL penicillin, and 100 µg/mL streptomycin in a humidified atmosphere of 5% CO2 at 37 °C. 2 mL of cell suspension was poured into each well of a 6-well plate and incubated overnight at 37 °C. After reaching to a confluency of 70–80%, the cells were transfected with a plasmid encoding EGFP-tagged CCK2R using the jetPRIME transfection reagent according to manufacturer’s instructions (Polyplus-transfection, USA).
The receptor-mediated activation of Gq-dependent signaling was measured using a homogenous time-resolved fluorescence (HTRF) based inositol-1-phosphate (IP1) assay kit (Cisbio, France). Approximately 3-6 × 10^4 HEK293 cells expressing the CCK2R were seeded into each well of a 96- or 384-well plate and incubated overnight at 37 °C. […] Antagonists YM-022 and LY225910 (500 nM or 1 µM, both Sigma -Aldrich, Austria) were preincubated at 37 °C for 30 min. After adding IP1-d2 conjugate and anti-IP1 Eu Cryptate according to manufacturers’ instructions, the plate was incubated at room temperature for 3 h. The HTRF measurement was carried out using the FlexStation 3 multi-mode microplate reader with excitation at 330 nm and emissions at 620 and 665 nm.
All experiments were performed in triplicate, analyzed using the GraphPad prism software (GraphPad Software, USA) and expressed as mean ± SD (standard deviation). Pharmacological data of concentration response curves were normalized to the maximal response of CCK-8 detected at the highest concentration. […] Single concentration efficacy data were normalized to baseline (assay buffer) and data were expressed as IP1 formation (fold difference over baseline).

Take `Cc1cccc(NC(=O)N[C@@H]2N=C(c3ccccc3)c3ccccc3N(CC(=O)c3ccccc3C)C2=O)c1` [YM-022, (R)-1-[2,3-dihydro-1-(2'-methylphenacyl)-2-oxo-5-phenyl-1H-1,4-benzodiazepin-3-yl]-3-(3-methylphenyl) urea]: the “Antagonism of CCK-8-induced IP1 formation” value on mouse CCK2R is recorded as “significant inhibition of the IP1 formation”.

“cholecystokinin-8 (from UniProt P06307 96-103) (peptide)”: the EC50 of IP1 accumulation, CCK-8 alone (control curve of the co-treatment experiment, Fig. 5b) in data set [1] came out at 12.9 nM.

With `CSCC[C@H](NC(=O)[C@H](Cc1ccc(OS(=O)(=O)O)cc1)NC(=O)[C@@H](N)CC(=O)O)C(=O)NCC(=O)N[C@@H](Cc1c[nH]c2ccccc12)C(=O)N[C@@H](CCSC)C(=O)N[C@@H](CC(=O)O)C(=O)N[C@@H](Cc1ccccc1)C(N)=O` [CCK-8, cholecystokinin-8], the “IP1 formation (fold difference over baseline)” value at mouse CCK2R (CCK-8 at 1 nM) is listed as 0.09 fold difference over baseline; at mouse CCK2R (CCK-8 at 3 nM) it was 0.31 fold difference over baseline. Also, the half-maximal effective concentration (EC50) at mouse CCK2R (EC50 of CCK-8 alone, CCK-8 alone, Fig. 5b experiment, n = 3) stood at 12.9 nM; on mouse CCK2R (SD), 11.5 ± 1.5 nM. Moreover, the maximum response (Emax) on mouse CCK2R came out at 100%.

Regarding `CC(C)Oc1cccc(-n2c(CCc3c[nH]c4ccc(Br)cc34)nc3ccccc3c2=O)c1` [LY225910], on mouse CCK2R, the “Antagonism of CCK-8-induced IP1 formation” value was “did not displace the effects of endogenous ligand CCK-8”.

For `CC[C@H](C)[C@@H]1NC(=O)[C@@H]2CSSC[C@@H]3NC(=O)[C@H](C(C)C)NC(=O)[C@H](CCCCN)NC(=O)[C@H](CCCCN)NC(=O)[C@H](CCCCN)NC(=O)[C@@H]4CSSC[C@H](NC(=O)[C@H](CO)NC(=O)[C@H](CCC(=O)O)NC(=O)CNC(=O)[C@H](CSSC[C@H](NC(=O)CNC(=O)[C@H]([C@@H](C)CC)NC(=O)[C@H](C(C)C)NC(=O)[C@H]([C@@H](C)O)NC(=O)[C@H](CO)NC1=O)C(=O)N[C@@H](CO)C(=O)N4)NC(=O)[C@@H]1CCCN1C(=O)[C@H]([C@@H](C)CC)NC(=O)[C@H](C(C)C)NC(=O)CNC(=O)[C@H](CC(N)=O)NC(=O)[C@H](CCCNC(=N)N)NC(=O)[C@H](Cc1ccc(O)cc1)NC3=O)C(=O)N[C@@H](C(C)C)C(=O)N[C@@H](Cc1ccccc1)C(=O)N[C@@H]([C@@H](C)CC)C(=O)N1CCC[C@H]1C(=O)N2` [caripe 11] (cyclo(CGESCVFIPCISTVIGCSCKKKVCYRNGVIP); disulfide 1-17, 5-19, 10-24), the “Effect on HEK cell viability” value is on record as “slightly decreased HEK cell viability” in the data set with HEK293 cells (caripe 11 100 µM) and “did not have a pronounced effect” with HEK293 cells (caripe 11 ≤ 30 µM). In addition, on mouse CCK2R (SD), the Emax came out at 71 ± 6.9%. The half-maximal effective concentration (EC50) at mouse CCK2R (SD) came to 8500 ± 1700 nM. Besides, on mouse CCK2R (caripe 11 30 µM co-incubated with CCK-8 70 nM (EC80), Fig. S1a, n = 2), the “Reduction of the EC80 effect of CCK-8” value is given as ~ 20%. In addition, on mouse CCK2R (co-treatment with caripe 11 10 µM, increased from 0, Fig. 5b, n = 3), the “Basal activity of the CCK-8 concentration-response curve upon co-treatment” value is 17%.

Regarding cyclo(GVIPCGESCVFIPCISTVIGCSCKKKVCYRN) (also: three disulfide bonds, pairing not given here) [caripe 11], the reduction of the IP1 effect of 70 nM (EC80) CCK-8 by co-incubated caripe 11 (3, 10, 30 µM); value at 30 µM in data set [1] came out at 20%. In data set [2], this molecule returned an EC50 of IP1 accumulation (HTRF) in HEK293 cells transiently expressing CCK2R of 8500 nM and an Emax of IP1 accumulation, normalised to the maximal response of CCK-8 of 71%.
